Results from patent US12662451B2, “Chemical compounds and uses thereof” (GLAXOSMITHKLINE INTELLECTUAL PROPERTY (NO.4) LIMITED, priority 2023, dated 2026).
Read-outs that look alike come from different tables or passages of the source.

Key:
[1] = target: T1, recombinant full-length WRN protein (1-1432) (Homo sapiens, UniProt Q14191); assay: WRN unwinding activity, fluorogenic 384-well assay (Example A); assay type: biochemical; details: WRN unwinding activity, Table 2; for IC50: 4 hr, read-out: 4 hr UNW pIC50 (converted)
T1 construct: recombinant full-length WRN protein (1-1432)
T1 sequence (Q14191 whole entry): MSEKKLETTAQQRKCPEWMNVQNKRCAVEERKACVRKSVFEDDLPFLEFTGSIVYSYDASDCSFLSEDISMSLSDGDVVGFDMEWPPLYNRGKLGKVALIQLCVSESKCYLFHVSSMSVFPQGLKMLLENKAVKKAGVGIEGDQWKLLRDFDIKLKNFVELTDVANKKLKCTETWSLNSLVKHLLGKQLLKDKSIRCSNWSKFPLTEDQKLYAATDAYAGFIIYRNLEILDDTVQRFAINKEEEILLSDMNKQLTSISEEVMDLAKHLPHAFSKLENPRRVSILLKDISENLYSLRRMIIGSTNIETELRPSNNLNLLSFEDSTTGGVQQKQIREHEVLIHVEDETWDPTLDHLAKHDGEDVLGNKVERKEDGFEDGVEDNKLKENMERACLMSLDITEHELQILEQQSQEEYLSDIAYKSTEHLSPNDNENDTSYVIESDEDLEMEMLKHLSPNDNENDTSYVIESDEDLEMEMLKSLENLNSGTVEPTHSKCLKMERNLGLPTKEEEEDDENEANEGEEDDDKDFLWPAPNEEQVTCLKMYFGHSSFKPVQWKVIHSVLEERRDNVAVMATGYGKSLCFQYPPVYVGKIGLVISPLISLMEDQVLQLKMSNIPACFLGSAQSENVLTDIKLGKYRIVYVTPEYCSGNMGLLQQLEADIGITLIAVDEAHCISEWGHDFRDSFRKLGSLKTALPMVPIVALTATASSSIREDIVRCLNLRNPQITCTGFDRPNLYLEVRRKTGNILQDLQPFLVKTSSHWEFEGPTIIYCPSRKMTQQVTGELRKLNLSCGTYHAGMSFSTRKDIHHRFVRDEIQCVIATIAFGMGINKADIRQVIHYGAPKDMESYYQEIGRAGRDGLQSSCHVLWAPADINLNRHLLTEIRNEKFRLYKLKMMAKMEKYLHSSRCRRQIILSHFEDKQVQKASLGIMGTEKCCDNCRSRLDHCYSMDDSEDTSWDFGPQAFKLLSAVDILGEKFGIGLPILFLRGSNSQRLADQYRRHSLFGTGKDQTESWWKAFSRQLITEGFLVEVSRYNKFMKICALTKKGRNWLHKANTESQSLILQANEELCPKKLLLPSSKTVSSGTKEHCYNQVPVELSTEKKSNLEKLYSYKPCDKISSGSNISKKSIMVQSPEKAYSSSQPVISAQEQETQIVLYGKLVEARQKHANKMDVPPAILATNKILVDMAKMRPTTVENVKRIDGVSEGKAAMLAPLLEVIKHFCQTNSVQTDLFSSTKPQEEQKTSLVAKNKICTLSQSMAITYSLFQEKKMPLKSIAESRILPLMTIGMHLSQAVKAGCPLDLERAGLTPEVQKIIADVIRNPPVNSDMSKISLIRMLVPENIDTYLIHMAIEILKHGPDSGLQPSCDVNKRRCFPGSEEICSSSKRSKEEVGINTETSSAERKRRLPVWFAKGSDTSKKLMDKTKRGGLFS
Outline: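 Read-out is end-point unwinding of a fluorophore/quencher duplex (ex 525, em 598 nm) after 60 min with 200 μM ATP and 12 nM DNA (2× stocks), EDTA stop. Compound first sat 4 h with 200 pM WRN (2× stock) in pH 8.0 Tris buffer; four-parameter fit gives pIC50.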

[2] = Cell culture media unbound percentage and stability by rapid equilibrium dialysis (Example C); assay type: in vitro ADME; details: bovine, cell assay medium (RPMI-1640 with 10% fetal bovine serum), pH 7.4, rapid equilibrium dialysis, 4 hours at 37° C., read-out: Cell Culture Media Binding (% unbound)
Outline: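 Percent unbound in cell assay medium came from the LC-MS/MS receiver:donor peak area ratio, with stability taken as the 240 min over 0 min ratio. Set-up: 1 μM nominal compound in medium dialysed against pH 7.4 PBS (100 mM phosphate, 150 mM NaCl), 4 h, 37° C, shaken, in triplicate.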

[3] = tested on: SW48 human colorectal cancer cell line xenografts; assay: In vivo efficacy in mouse model bearing SW48 xenografts (Example D); details: SW48 xenograft, female nude mice
Experimental: In Viva Efficacy Study of Test Compounds in Mouse Model Bearing SW48 Human Colorectal Cancer Cell Line Xenografts
Experiments were performed with female Crl:Nu-Foxn1^nu nude mice. Animals were housed under optimized hygienic condition with food and water at libitum and a 12 h:12 h light:dark cycle. Animals were allowed to acclimatize for at least 4 days before being enrolled in the experimental design.
SW48 human colorectal cancer cells (RRID:CVCL1724) were obtained from ATCC. The cells were cultured in RPMI 1640 with 10% Fetal Bovine Serum at 37° C. in atmosphere of 5% CO2 in air. To establish SW48 xenografts, cells were harvested and resuspended in serum free RPM11640 and Matrigel before inoculation and 5×10^6 SW48 tumor cells were injected subcutaneously in 100 μL volume using 27G1/2 needle. Cells were inoculated in the right hind flank of the animals.
Post cell inoculation, tumor growth was monitored daily, and animals were randomized into treatment groups (n=10/group) once the tumor volume reached an appropriate size (80-150 mm^3). Throughout the treatment period, both tumor volume and body weight were measured approximately twice a week. The tumor size, in mm^3, was computed using the formula: 0.5×L×W^2, where W=width and L=length of the tumor. To prepare a test compound for oral administration, between 30-120 mg of the test compound was dissolved in a vehicle solution consisting of 0.5% Methycellulose (cp 400) and 0.5% Tween 80. The compound was freshly prepared one hour prior to daily administration. If turbidity was observed, the solution was vortexed at over 2000 rpm for 10 minutes and mixed with a 1 mL syringe. The resulting solution formulation was utilized for in vivo studies.
Animals received either a vehicle or test compounds at dosage of 30 or 100 mg/kg daily through oral gavage (10 ml/kg). Body weight was measured twice a week using the Ohaus electronic scale (STX421) and the data was automatically added to the study log. Moreover, daily clinical observations were performed to closely monitor the animals. Tumor growth inhibition was computed using the following formula:
[formula] where T=current group value; T0=Current group initial value; C=Control group Value; C0=control group initial value.
Data of tumor volume were exported and analyzed in GraphPad Prism (9.5). The analysis included a two-way ANOVA test, comparing the vehicle control vs. treatments at different time points, followed by a Tukey HSD post hoc test.
The calculation of tumor regression was conducted as per the following formula:
[formula] where Day 0=treatment start day; Δ tumor volume=mean tumor volume on the evaluation day—mean tumor volume Day 0.

[4] = tested on: SW48 human colorectal cancer cells; assay: Calculated free drug potency in SW48 cell assay, corrected with media free fraction (Example C); assay type: cell-based; details: Homo sapiens, SW48, SW48 pCC50 corrected with measured free fraction in cell assay media
Outline: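 Free drug potency derives from correcting SW48 assay concentrations with the unbound fraction in medium. That fraction came from RED against pH 7.4 PBS, 1 μM nominal compound, 4 h at 37 °C, quantified by LC-MS/MS peak area ratios at T=240 versus T=0 min.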

[5] = tested on: SW48 human colorectal cancer cells (MSI-H cancer cells); assay: SW48 cell viability, CellTiter-Glo, 120 hours (Example B); details: for CC50: Homo sapiens
[6] = tested on: SW48 human colorectal cancer cells (MSI-H cancer cells)
[7] = SW48, read-out: SW48 pCC50, measured potency from Example B, as repeated in Table 3 (converted)
[8] = SW48, 120 h, read-out: SW48 pCC50, SW48 cell viability, 120 hours incubation (converted), Table 2

Row | IC50 [1] [nM] | fraction unbound at 4 h, 1 µM [2] | 4 hr UNW pIC50 [1] | Structure (SMILES) | mean tumor regression ([3]; 100 mpk daily oral, 55th day) [%] | CC50 [4] [nM] | CC50 [5, 7] [nM] | SW48 pCC50 ([5]; SW48 cell viability, 120 hours incubation, Table 2) | mean tumor regression ([3]; 30 mpk orally once a day, 21st day) [%] | CC50 [5, 8] [nM] | SW48 pCC50 [6] | tumor growth inhibition compared to the vehicle control ([3]; 30 mpk daily oral, 21st day) [%] | mean tumor regression ([3]; 30 mpk daily oral, 23rd day) [%]
1 | 2.51 | 0.065 | – | Cc1nc2cc(S(=O)(=O)N(C)c3ccc([C@H]4CCC[C@@H](C(=O)Nc5ccc(C(F)(F)F)cc5F)[C@@H]4C(=O)O)cc3)ccc2n1C (single isomer, unassigned) [Example 83] | −24.01 | 12.9 | 251 | 6.6 | – | – | – | – | –
2 | 3.16 | 0.067 | – | CCO[C@@H]1C[C@H](c2ccc(N(C)S(=O)(=O)c3ccc4c(c3)nc(C)n4C)cc2)[C@@H](C(=O)O)[C@H](C(=O)Nc2ccc(C(F)(F)F)cc2F)C1 (single isomer, unassigned) [Example 138] | – | 17 | 251 | – | −74.26 | 251 | – | – | –
3 | – | – | 9.2 | Cc1nc2cc(S(=O)(=O)Nc3ccc([C@H]4CCC[C@@H](C(=O)Nc5ccc(C(F)(F)F)cc5F)[C@@H]4C(=O)O)cc3)ccc2[nH]1 (relative stereo) [Example 259, rel-(1R,2R,6S)-2-((2-fluoro-4-(trifluoromethyl)phenyl)carbamoyl)-6-(4-((2-methyl-1H-benzo[d]imidazole)-5-sulfonamido)phenyl)cyclohexane-1-carboxylic acid] | – | – | – | – | – | – | 5.4 | – | –
4 | – | – | 5.7 | Cc1nc2cc(S(=O)(=O)N(C)c3ccc([C@H]4CCC[C@@H](COc5ccc(C(F)(F)F)cc5)[C@@H]4C(=O)O)cc3)cc([C@@H]3CCCNC3)c2n1C.Cl (stereo in doubt) [Example 210, rel-(1R,2R,6S)-2-((4-(trifluoromethyl)phenoxy)methyl)-6-(4-((N,1,2-trimethyl-7-((S)-piperidin-3-yl)-1H-benzo[d]imidazole)-5-sulfonamido)phenyl)cyclohexane-1-carboxylic acid, hydrochloride] | – | – | – | – | – | – | 4.9 | – | –
5 | 6.31 | 0.027 | – | COC[C@@H]1C[C@H](c2ccc(N(C)S(=O)(=O)c3ccc4c(c3)nc(C)n4C)cc2)[C@@H](C(=O)O)[C@H](C(=O)Nc2ccc(C(F)(F)F)cc2F)C1 (single isomer, unassigned) [Example 250] | – | 8.51 | 316 | – | – | 316 | – | 72.95 | –
6 | 5.01 | 0.103 | – | Cc1nc2cc(S(=O)(=O)N(C)c3ccc([C@H]4C[C@@H](N5CCC(F)(F)C5)C[C@@H](C(=O)Nc5ccc(C(F)(F)F)cc5F)[C@@H]4C(=O)O)cc3)ccc2n1C [Example 306, (1R,2R,4R,6S)-4-(3,3-difluoropyrrolidin-1-yl)-2-((2-fluoro-4-(trifluoromethyl)phenyl)carbamoyl)-6-(4-((N,1,2-trimethyl-1H-benzo[d]imidazole)-5-sulfonamido)phenyl)cyclohexane-1-carboxylic acid] | – | 10.2 | 100 | – | – | 100 | – | – | −73.2
7 | 501 | 0.151 | – | CC(=O)N[C@@H]1C[C@@H](COc2ccc(C(F)(F)F)cc2)[C@H](C(=O)O)[C@@H](c2ccc(N(C)S(=O)(=O)c3ccc4c(c3)nc(C)n4C)cc2)C1 (single isomer, unassigned) [Example 298] | – | 1510 | – | – | – | 10000 | – | – | –

Row | Structure (SMILES) | IC50 [1] [nM] | fraction unbound at 4 h, 1 µM [2] | 4 hr UNW pIC50 [1] | mean tumor regression ([3]; 100 mpk daily oral, 55th day) [%] | CC50 [4] [nM] | CC50 [5, 7] [nM] | SW48 pCC50 ([5]; SW48 cell viability, 120 hours incubation, Table 2) | mean tumor regression ([3]; 30 mpk orally once a day, 21st day) [%] | CC50 [5, 8] [nM] | SW48 pCC50 [6] | tumor growth inhibition compared to the vehicle control ([3]; 30 mpk daily oral, 21st day) [%] | mean tumor regression ([3]; 30 mpk daily oral, 23rd day) [%]
8 | CN(c1ccc([C@H]2CCC[C@@H](C(=O)Nc3ccc(C(F)(F)F)cc3F)[C@@H]2C(=O)O)cc1)S(=O)(=O)c1ccc(-n2cccn2)cc1 [Example 98, (1R,2R,6S)-2-((2-fluoro-4-(trifluoromethyl)phenyl)carbamoyl)-6-(4-((N-methyl-4-(1H-pyrazol-1-yl)phenyl)sulfonamido)phenyl)cyclohexane-1-carboxylic acid] | – | – | 8.6 | – | – | – | – | – | – | 5.5 | – | –
